Reference: the NIST ThermoML archive (doi:10.1016/j.fluid.2013.12.008)
Numbers after ± are expanded uncertainties.

What was measured:
[1] = 101 kPa, Liquid; for viscosity: Falling or rolling sphere viscometry; for mass density: Vibrating tube method
[2] = xn = mol fraction of the nth substance listed; settings: 101 kPa, Liquid; for viscosity: Falling or rolling sphere viscometry; for mass density: Vibrating tube method

CCn1cc[n+](C)c1.N#C[C-](C#N)C#N [1-ethyl-3-methyl-1H-imidazolium tricyanomethanide]
[1]
Settings	mass density [kg/m3]	viscosity [mPa·s]
293.15 K	1085.2 ± 1.4	17.72 ± 0.42
303.15 K	1078.1 ± 1.4	12.88 ± 0.3
313.15 K	1071.1 ± 1.3	9.8 ± 0.23
323.15 K	1064.1 ± 1.3	7.73 ± 0.18
333.15 K	1057.2 ± 1.3	5.93 ± 0.14
343.15 K	1050.4 ± 1.3	4.91 ± 0.12
353.15 K	1043.6 ± 1.3	4.15 ± 0.1

CCn1cc[n+](C)c1.N#C[C-](C#N)C#N [1-ethyl-3-methyl-1H-imidazolium tricyanomethanide] + CCn1cc[n+](C)c1.N#CN=C=[N-]
[2]
Settings	mass density, x1 = 0.2 [kg/m3]	mass density, x1 = 0.4 [kg/m3]	mass density, x1 = 0.6 [kg/m3]	mass density, x1 = 0.8 [kg/m3]	mass density, x1 = 1 [kg/m3]	viscosity, x1 = 0.2 [mPa·s]	viscosity, x1 = 0.4 [mPa·s]	viscosity, x1 = 0.6 [mPa·s]	viscosity, x1 = 0.8 [mPa·s]	viscosity, x1 = 1 [mPa·s]
293.15 K	1099.9 ± 1.4	1095.8 ± 1.4	1091.9 ± 1.4	1088.4 ± 1.4	1085.2 ± 1.4	17.55 ± 0.41	17.59 ± 0.41	17.6 ± 0.41	17.64 ± 0.41	17.72 ± 0.42
303.15 K	1093.2 ± 1.4	1088.9 ± 1.4	1085 ± 1.4	1081.4 ± 1.4	1078.1 ± 1.4	13.05 ± 0.31	13.02 ± 0.31	13.01 ± 0.31	12.89 ± 0.3	12.88 ± 0.3
313.15 K	1086.5 ± 1.4	1082.2 ± 1.4	1078.1 ± 1.4	1074.5 ± 1.3	1071.1 ± 1.3	10.12 ± 0.24	10.05 ± 0.24	10.02 ± 0.24	9.89 ± 0.23	9.8 ± 0.23
323.15 K	1079.9 ± 1.4	1075.5 ± 1.4	1071.3 ± 1.3	1067.6 ± 1.3	1064.1 ± 1.3	7.92 ± 0.19	7.84 ± 0.18	7.8 ± 0.18	7.77 ± 0.18	7.73 ± 0.18
333.15 K	1073.4 ± 1.3	1068.8 ± 1.3	1064.6 ± 1.3	1060.8 ± 1.3	1057.2 ± 1.3	6.26 ± 0.15	6.22 ± 0.15	6.19 ± 0.15	6.15 ± 0.14	5.93 ± 0.14
343.15 K	1066.9 ± 1.3	1062.3 ± 1.3	1057.9 ± 1.3	1054.1 ± 1.3	1050.4 ± 1.3	5.23 ± 0.12	5.21 ± 0.12	5.2 ± 0.12	5.1 ± 0.12	4.91 ± 0.12
353.15 K	1060.5 ± 1.3	1055.7 ± 1.3	1051.3 ± 1.3	1047.4 ± 1.3	1043.6 ± 1.3	4.44 ± 0.1	4.42 ± 0.1	4.38 ± 0.1	4.32 ± 0.1	4.15 ± 0.1

CCn1cc[n+](C)c1.N#CN=C=[N-] [1-ethyl-3-methylimidazolium dicyanamide]
[1]
Settings	mass density [kg/m3]	viscosity [mPa·s]
293.15 K	1104.6 ± 1.4	17.54 ± 0.41
303.15 K	1098 ± 1.4	13.11 ± 0.31
313.15 K	1091.4 ± 1.4	10.17 ± 0.24
323.15 K	1084.9 ± 1.4	8.13 ± 0.19
333.15 K	1078.5 ± 1.4	6.66 ± 0.16
343.15 K	1072.1 ± 1.3	5.58 ± 0.13
353.15 K	1065.8 ± 1.3	4.75 ± 0.11

CCn1cc[n+](C)c1.N#CN=C=[N-] [1-ethyl-3-methylimidazolium dicyanamide] + CCn1cc[n+](C)c1.N#C[C-](C#N)C#N
[2], x2 = 0
Settings	mass density [kg/m3]	viscosity [mPa·s]
293.15 K	1104.6 ± 1.4	17.54 ± 0.41
303.15 K	1098 ± 1.4	13.11 ± 0.31
313.15 K	1091.4 ± 1.4	10.17 ± 0.24
323.15 K	1084.9 ± 1.4	8.13 ± 0.19
333.15 K	1078.5 ± 1.4	6.66 ± 0.16
343.15 K	1072.1 ± 1.3	5.58 ± 0.13
353.15 K	1065.8 ± 1.3	4.75 ± 0.11
